Data taken from PMC5382548 (Scientific Reports, 2015).

Legend:
[1] = system: KRAS21R (DNA, G4) AGGGCGGTGTGGGAAGAGGGA; assay: spectrofluorimetric titration, one-site saturation fit; details: 60 mM K+; K-cacodylate pH 7.4, 25 °C; 1 μM compound; SD ≤ 0.2 × 10^6
[2] = system: 26ds (ds26) (DNA, duplex) CAATCGGATCGAATTCGATCCGATTG; assay: as above; details: 60 mM K+; K-cacodylate pH 7.4, 25 °C; 1 μM compound; SD ≤ 0.2 × 10^6
[3] = system: SW620 metastatic colon cancer cells; assay: Guava ViaCount assay, SW620; format: cell-based, human; details: IC65 concentration, 72 h
From the text: The ability of IQcs to induce cell death in colon cancer cell lines with different genotypes (HCT116 and SW620) and in the non-malignant cell line HEK293T was studied by a Guava Via Count assay and compared with the behaviour of 5-FU and TMPyP4 at equitoxic concentrations (IC50 and IC65). Results in Figure 7 show dose-dependent induction of cell death, mainly by apoptosis, by all tested compounds in the HCT116 colon cancer cell line. […] In SW620 metastatic colon cancer cells, cell death induction was highly dependent on the number and position of side chains in IQc compounds. […]
Figure 7 Evaluation of the effect of IQc on cell viability using the ViaCount assay. […] Results are expressed as the mean percentage (%) of viable (white), mid-apoptotic (grey) and dead (black) cells ± SEM, of at least three different experiments, for (a) IC50, and for (b) IC65 compound concentrations. a, p < 0.05; b, p < 0.01 from DMSO (vehicle control); c, p < 0.05; and d, p < 0.01 from 5-FU. […]
Taqman Real-time PCR reactions were performed using 1.5 µg of total RNA, using High Capacity RNA to cDNA kit, according to the manufacturer`s instruction. […] The comparative threshold cycle method was used to calculate the amplification factor, where the threshold cycle (Ct) is defined as the cycle number at which the fluorescence passes the fixed threshold intensity level. […]

Question: How did the Ka [1] turn out when `Cn1cc2c3ccccc3nc-2c2cc(Br)ccc21` [2a, 2-bromo-5-methyl-indolo[3,2-c]quinoline] was run?
Answer: The Ka was 1.7e+06 M⁻¹.

Question: And the Ka [2]?
Answer: The Ka was 800000 M⁻¹.

Question: `C[n+]1ccc(-c2c3nc(c(-c4cc[n+](C)cc4)c4ccc([nH]4)c(-c4cc[n+](C)cc4)c4ccc([nH]4)c(-c4cc[n+](C)cc4)c4nc2C=C4)C=C3)cc1` [TMPyP4, reference compound] was tested. Which “Cell death induced, SW620” value [3] did it give?
Answer: The value was greater than 20%.
